Among the data in patent US20260234144A1 (TAY THERAPEUTICS LIMITED, priority 2023, published 2026) are Emax and EC (100% of 200 uM G418 response) values, retold here.

The test system of this assay is R223X stop codon in the mutated luciferase gene, ADXC8 luciferase reporter cell line. The assay is described as follows: cells. In kind it is cell-based. Conditions: 24 h, ADXC8 cells, 24 hours; for Emax: read-out: Fold Over Control, maximum fold response relative to 200 μM G418; for EC (100% of 200 uM G418 response): read-out: pC100%, negative logarithm of the concentration giving the same response as 200 μM G418. As for the experimental part:
The read-through activity of compounds was assessed using the ADXC8 luciferase reporter cell line (generated as described in McElroy et al. PLoS Biology (2013), 11, e1001593). […] The amount of luciferase is measured by adding a lysis buffer containing luciferin substrate and detecting luminescence using the following protocol:
ADXC8 cells in assay media (DMEM+10% FBS) were seeded into 96-well tissue culture treated white plates (Greiner) to a density of 13,000 cells per well and incubated for 24 hours at 37° C. in an atmosphere of 5% CO2. […] Plates were incubated for a further 24 hours at 37° C. in an atmosphere of 5% CO2. Cells treated with 200 μM G418 (with 1% DMSO) were used as a positive control.
Cell viability and firefly luciferase activity were measured in the same assay wells. CellTiter-Fluor™ reagent was prepared as per manufacturer's instructions (Promega E7120) and 20 μl of 5× CellTiter-Fluor™ reagent was added to all wells, briefly mixed by orbital shaking (300-500 rpm for −30 seconds) and the plates incubated for 30-45 minutes at 37° C. in an atmosphere of 5% C02. Cell viability was measured by monitoring fluorescence on a CLARIOstar® plate reader (BMG Labtech). Cells containing 1% DMSO were used as a positive control and cells with 400 μM Doxorubicin were used as negative control to define 100 and 0% respectively. ONE-Glo™ luciferase assay buffer (Promega E7120) was prepared according to manufacturer's instructions and 100 μl of luciferase reagent was added to each well and the plate incubated at RT for 3 mins before measuring the luminescence on the CLARIOstar® plate reader (BMG Labtech). Cells treated with 200 μM G418 (with 1% DMSO) were used as a positive control and arbitrarily assigned a value of 100%. Cells treated with 1% DMSO were used as the negative control to define 0% response.
Concentration effect curves were analysed using non-linear regression using the CDD Vault from Collaborative Drug Discovery (Burlingame, CA). […] The bottom and top of the curves were constrained to 0 and the maximum measured response respectively. From the fitted curves, the software derived C100% values (the concentration giving the same response as 200 μM G418) for each compound. The negative logarithm of C100% is reported as pC100% (Table 1). In addition to pC100% values, the maximum fold response relative to 200 μM G418 (Fold over Control) was also captured (Table 1). A pC100% categorisation of ‘-’ in Table 1 represents examples in which a pC100% response was not reached when assayed at a concentration of 100 μM. A pC100% categorisation of ‘*’ in Table 1 represents examples in which a pC100% response was not reached when assayed at a concentration of 30 μM.

In the case of `CNc1nc(N[C@@H]2CCN(C)C2)nc2nc3c(c(C)c12)CCO3` [Example 514, (R)—N^4,5-dimethyl-N^2-(1-methylpyrrolidin-3-yl)-6,7-dihydrofuro[3′,2′:5,6]pyrido[2,3-d]pyrimidine-2,4-diamine], the Emax was 100 to 3000% and the EC (100% of 200 uM G418 response) was 1 to 10 µM.

Consider `COc1ccnc2nc(NC3CCN(C)CC3)nc(N)c12` [Example 281], for which the Emax lay within 100 to 3000% and the EC (100% of 200 uM G418 response) fell in the range of 10 to 100 µM.

Take `Cc1cc(C)c2c(N)nc(NC3CCCNCC3)nc2n1` (stereo not drawn) [Example 140, A2-(azepan-4-yl)-5,7-dimethylpyrido[2,3-d]pyrimidine-2,4-diamine]: the Emax is 100 to 3000% and the EC (100% of 200 uM G418 response) fell in the range of 1 to 10 µM. Take `CN1CCC(Nc2nc(N)c3ccc(-c4cccc(O)c4)nc3n2)CC1` [Example 104]: the EC (100% of 200 uM G418 response) was in the range of 10 to 100 µM.

As for `Cc1cc(C)c2c(NCCO)nc(NC3CCN(C)CC3)nc2n1` [Example 273], the EC (100% of 200 uM G418 response) fell in the range of 1 to 10 µM. `Cc1c2c(nc3nc(N[C@@H]4CCCNC4)nc(N)c13)CCC2` [Example 581]: the Emax fell in the range of 100 to 3000% and the EC (100% of 200 uM G418 response) fell in the range of 0.01 to 0.1 µM. In the case of `CN1CCC(Nc2nc(N)c3ccc(-c4cccc(C#N)c4)nc3n2)CC1` [Example 112], the EC (100% of 200 uM G418 response) fell in the range of 1 to 10 µM. The same measure, in the same setting: with `CSc1cccc(-c2ccc3c(N)nc(NC4CCN(C)CC4)nc3n2)c1` [Example 99] the figure was 0.1 to 1 µM. On to `Cc1cc(C)c2c(N)nc(NC3CCN(Cc4ccccc4C)CC3)nc2n1` [Example 550], for which the Emax was in the range of 100 to 3000% and the EC (100% of 200 uM G418 response) was in the range of 1 to 10 µM. As to `CNc1nc(N[C@H]2CN(C)CC[C@@H]2O)nc2nc(C)cc(C)c12` [Example 609], the EC (100% of 200 uM G418 response) lay in the range of 1 to 10 µM. For the compound `Cc1cccc(CN2CCC(Nc3nc(N)c4c(C)cc(C)nc4n3)CC2)c1` [Example 549], the Emax lay within 100 to 3000% and the EC (100% of 200 uM G418 response) lay in the range of 1 to 10 µM. For `COCc1ccc(CN2CCC(Nc3nc(N)c4c(C)cc(C)nc4n3)CC2)cc1` [Example 488], the Emax was in the range of 100 to 3000% and the EC (100% of 200 uM G418 response) fell in the range of 1 to 10 µM.

With `Cc1c2c(nc3nc(NC4CCN(Cc5cnccc5O)CC4)nc(N)c13)CCC2` [Example 663], the Emax lay in the range of 100 to 3000% and the EC (100% of 200 uM G418 response) was 1 to 10 µM. Taken in the same sequence, the figures for `Cc1cc(C)c2c(N)nc(NC3CCN(Cc4cccc(C(N)=O)c4)CC3)nc2n1` [Example 484] were 100 to 3000% and 10 to 100 µM.

In the case of `CN1CCC(Nc2nc(N)c3c(N(C)C)ccnc3n2)CC1` [Example 307], the Emax lay in the range of 0 to 100% and the EC (100% of 200 uM G418 response) was over 100 µM.

As to `Cc1nc2nc(NC3CCN(C)CC3)nc(N)c2c2ccccc12` [Example 9, 6-methyl-N^3-(1-methylpiperidin-4-yl)pyrimido[4,5-c]isoquinoline-1,3-diamine], the Emax is 100 to 3000% and the EC (100% of 200 uM G418 response) is 1 to 10 µM.

For the compound `Cc1cc(C)c2c(N)nc(NC3CCN(Cc4nnc[nH]4)CC3)nc2n1` [Example 483], the Emax lay in the range of 0 to 100% and the EC (100% of 200 uM G418 response) was over 31.6 µM.

Consider `Cc1c2c(nc3nc(NC4CCN(Cc5ccc(C#N)cc5)CC4)nc(NCCO)c13)CCC2` [Example 555], for which the Emax was 100 to 3000% and the EC (100% of 200 uM G418 response) fell in the range of 0.1 to 1 µM. For the compound `CN1CCC(Nc2nc(N)c3ccc(-c4ccc(F)cc4F)nc3n2)CC1` [Example 85], the EC (100% of 200 uM G418 response) is 1 to 10 µM. As for `Cc1nc2nc(NC3CCN(Cc4ccccc4)CC3)nc(N)c2c2c1CCC2` [Example 306], the Emax is 100 to 3000% and the EC (100% of 200 uM G418 response) fell in the range of 0.1 to 1 µM. Taken in the same sequence, the figures for `Cc1cc(C)c2c(N)nc(NC3(C)CNC3)nc2n1` [Example 222] were 0 to 100% and over 31.6 µM. In the same order, the values of `CN1CCC(Nc2nc(N)c3cc(C4CCCC4)cnc3n2)CC1` [Example 243, 6-cyclopentyl-N^2-(1-methylpiperidin-4-yl)pyrido[2,3-d]pyrimidine-2,4-diamine] are 100 to 3000% and 10 to 100 µM. In the same order, the values of `Cc1cc(C)c2c(NCc3ccccc3)nc(NC3CCN(C)CC3)nc2n1` [Example 268] are 100 to 3000% and 1 to 10 µM. Take `[2H]C([2H])([2H])Nc1nc(NC2CCNCC2)nc2nc(C)cc(C)c12` [Example 589]: the EC (100% of 200 uM G418 response) lay within 1 to 10 µM. The same measure, in the same setting: with `Cc1cc(C)c2c(N)nc(NCCN3Cc4ccccc4C3)nc2n1` [Example 37, N^2-(2-(isoindolin-2-yl)ethyl)-5,7-dimethylpyrido[2,3-d]pyrimidine-2,4-diamine] the figure was 10 to 100 µM. `Cc1cc(C)c2c(N)nc(NCCNCC(F)(F)F)nc2n1` [Example 162]: the Emax lay in the range of 0 to 100% and the EC (100% of 200 uM G418 response) was over 31.6 µM. In the same order, the values of `Cc1cc(C)c2c(N)nc(NCCCNCC(F)(F)F)nc2n1` [Example 185] are 0 to 100% and over 31.6 µM. Taken in the same sequence, the figures for `CNc1nc(N[C@H]2CN(C)C[C@@H]2F)nc2nc(C)c3c(c12)CCC3` [Example 365] were 100 to 3000% and 0.1 to 1 µM. In the same order, the values of `CNc1nc(N[C@H]2CNC[C@@H]2O)nc2nc3c(c(C)c12)CCC3` [Example 341] are 100 to 3000% and 0.01 to 0.1 µM. As for `Cc1cc(C)c2c(Nc3ccccc3)nc(NC3CCN(C)CC3)nc2n1` [Example 267], the Emax was 0 to 100% and the EC (100% of 200 uM G418 response) was over 31.6 µM.

For the compound `CNc1c(C)c(N[C@@H]2CCN(C)C2)nc2nc(C)cc(C)c12` [Example 620], the Emax fell in the range of 0 to 100% and the EC (100% of 200 uM G418 response) is over 31.6 µM. Take `CCNc1nc(N[C@H]2CNC[C@@H]2F)nc2nc(C)cc(C)c12` [Example 394]: the EC (100% of 200 uM G418 response) is 1 to 10 µM. With `CC(O)c1ccnc2nc(NC3CCN(C)CC3)nc(N)c12` (stereo not drawn) [Example 308], the Emax is 0 to 100% and the EC (100% of 200 uM G418 response) is over 100 µM. As for `CNc1nc(N[C@H]2CCCNCC2)nc2nc(C)cc(C)c12` [Example 387], the Emax was 100 to 3000% and the EC (100% of 200 uM G418 response) was 1 to 10 µM.

As for `Cc1cc(C)c2c(N)nc(NC3CCN(Cc4ccccc4)CC3(F)F)nc2n1` (stereo not drawn) [Example 639], the Emax was in the range of 0 to 100% and the EC (100% of 200 uM G418 response) is over 31.6 µM. Taken in the same sequence, the figures for `Cc1cc(C)c2c(N)nc(NCCCN3CC(F)(F)C3)nc2n1` [Example 195] were 0 to 100% and over 31.6 µM.

Turning to `CN1CCC(Nc2nc(N)c3ccc(CO)nc3n2)CC1` [Example 299], the Emax lay in the range of 0 to 100% and the EC (100% of 200 uM G418 response) was over 100 µM. On to `Cc1cc(C)c2c(NCc3cccnc3)nc(NC3CCN(C)CC3)nc2n1` [Example 318], for which the Emax lay within 0 to 100% and the EC (100% of 200 uM G418 response) is over 31.6 µM.

`CNc1nc(NC2CC[C@H]2N(C)C)nc2nc(C)cc(C)c12` (stereo partly drawn) [Example 412]: the EC (100% of 200 uM G418 response) was 1 to 10 µM. The same measure, in the same setting: with `CNc1nc(N[C@H]2CNC[C@@H]2O)nc2nc(C)cc(C)c12` [Example 325] the figure was 1 to 10 µM. For `COc1cc(C)nc2nc(N[C@@H]3CCN(C)C3)nc(N)c12` [Example 525, (R)-5-methoxy-7-methyl-N^2-(1-methylpyrrolidin-3-yl)pyrido[2,3-d]pyrimidine-2,4-diamine], the Emax was 100 to 3000% and the EC (100% of 200 uM G418 response) was 10 to 100 µM.

For `CN1CCC(Nc2nc(N)c3ccc(-c4cncn4C)nc3n2)CC1` [Example 114], the Emax is 0 to 100% and the EC (100% of 200 uM G418 response) was over 100 µM. In the same order, the values of `CNc1nc(N[C@@H]2CCN(C)C2)nc2nc(C)cc(OC)c12` [Example 631] are 100 to 3000% and 1 to 10 µM. In the same order, the values of `Cc1cc(C)c2c(N3CCOCC3)nc(NC3CCN(C)CC3)nc2n1` [Example 266] are 0 to 100% and over 100 µM. In the same order, the values of `Cc1nc2nc(NC3CCN(Cc4ccc(C#N)cc4)CC3)nc(N)c2c2c1CCC2` [Example 554] are 100 to 3000% and 0.1 to 1 µM.

Consider `CNc1nc(N[C@@H]2CN[C@H](C)C2)nc2nc(C)cc(C)c12` [Example 372], for which the Emax lay within 100 to 3000% and the EC (100% of 200 uM G418 response) fell in the range of 10 to 100 µM.
